Experimental data published in PMC11336141.
“Also recorded” adds a separate entry of the source. Bridge positions count the residues as written; N and C are the ends. Square brackets hold non-standard residues; d marks the D form. Peptide text beside a SMILES is read from it.

How the values were obtained:
[1] = system: isolated mouse islets; assay: Glucagon secretion from isolated islets; assay type: cell-based, mouse (C57BL/6J); conditions: for Islet glucagon secretion: -9 log M peptide
Method: Female C57BL/6 J mice of 12–20 weeks were used for the islet secretion. Mice were killed by cervical dislocation and pancreatic islets were isolated as previously described. […] The islets were subsequently incubated with or without drugs in 10 mM glucose KRB for an hour. Supernatant from both incubations were collected. Total islet glucagon content was determined by acid-ethanol extraction. Both the supernatant and the acid-ethanol content were stored at −80 °C until further analysis. Glucagon in both supernatant and content were measured using U-plex metabolic 2-plex combo (mouse insulin and glucagon) kit (Meso Scale Diagnostic; catalog no: K15303K) according to manufacturer’s instruction.
(§1) Data analysis were performed in GraphPad Prism (v.9.4.1). Statistical analysis were performed using two-way repeated measure analysis of variance (ANOVA) with Šidák test for isolated islets glucagon secretion and one-way repeated measure ANOVA with Dunnett's test for rat pancreas perfusion experiments. Statistical significance was taken as p < 0.05.

[2] = system: human SSTR2 (Gi1-3, GoA, GoB); assay: G protein activation (BRET dissociation) assay, panel of Gi/o proteins at hSSTR2; assay type: cell-based; conditions: hSSTR2, HEK293T cells
Method: (§5) HEK293T cells were seeded onto 6-well plates at a density of 750,000 cells/well. […] 16 to 24 hours post-transfection, HEK293T cells were seeded onto white 96 well plate (PerkinElmer) coated with poly-L-lysine (PLL) at a density of 40,000 cells/well and were allowed to grow overnight. On the day of assay, cells were washed once with phosphate-based saline (PBS) and 80 µL of assay buffer which composed of PBS with 0.5 mM MgCl2 and 0.1% glucose, pH 7.4, were added onto each well. 10 µL of Nluc luciferase substrate furimazine (Promega) were added onto each well and incubated for 3 minutes.
(§6) The net BRET ratio was determined by subtracting the BRET ratio of drugs with the BRET ratio of vehicle control. Net BRET ratio over time was then plotted using GraphPad Prism (v.9.4.1), and the area-under-curve of net BRET ratio over time course for each ligand concentration tested were then determined and plotted against log(concentration) of drugs tested. […] Concentration response curves were fitted with a 4-parameter logistic Eq. (1) using GraphPad Prism (v.9.4.1):1 Y=Emin+(Emax−Emin)/1+10^logEC50−X×Hillslope

[3] = system: Dr-sstr2a; assay: PRESTO-Tango β-arrestin recruitment assay, Dr-sstr2a; assay type: cell-based, zebrafish (Danio rerio); conditions: HTLA cells, listed as Consomatin pG1
Source text: (§2) 3xHA-tagged human SSTR2 construct was obtained from cDNA.org (cDNA resource center, Bloomsburg PA, US). […] Kirill Martemyanov (University of Florida, US). Tango constructs for human SSTR1-5 were kind gifts from Prof. Bryan Roth (University of North Carolina, Chapel Hill, US) (Addgene kit # 1000000068). Tango constructs for fish Dr-sstr2a (sequence accession number: XP_005170178.1) and Dr-sstr2b (sequence accession number: XP_017210358.1) were custom-synthesized by Twist Biosciences using the Tango construct template as described in Kroeze et al., 2015[28]. 3xHA-tagged Dr-sstr2a and 3xHA tagged Dr-sstr2b constructs were inserted into pcDNA3.1 backbone. All DNA constructs were sequenced and confirmed prior to use.
(§3) The assay was done as described in ref. [12].

[4] = system: perfused rat pancreas; assay: Rat pancreas perfusion, glucagon output; parameters: species or system rat (Wistar)
Method: Non-fasted rats were anesthetized by a subcutaneous injection of a balanced mix of hypnorm and midazolam (0.3 mL/100 g body weight). Rats were placed on a heated operating table (37 °C) and the abdomen were opened. Blood vessels were tied off before removing the large and small intestines, the stomach, and the spleen. Then, the kidneys were ligated. […] The perfusion buffer was a modified Krebs-Ringer bicarbonate buffer with 5% (w/v) dextran T-70 (Pharmacosmos, Holbaek, Denmark), 0.1% (w/v) BSA (fraction V), 3.5 mM glucose and 3 mM vamin (Fresenius Kabi, Copenhagen, Denmark), pH adjusted to 7.4. […] Once perfusion of the pancreas was established, a catheter was inserted in the vena portae to collect the venous effluent and the rat was sacrificed by perforation of the diaphragm. After a 30-minute equilibration period, samples were collected every minute for the duration of the protocol. […] 10 mM L-Arginine was used as a positive control. Collected samples were immediately transferred on ice and stored at −20 °C until hormone analysis. Glucagon, insulin, and somatostatin concentrations in venous effluents were quantified by use of validated in-house radioimmunoassays (RIA) as previously described[36] (see below). Statistical analysis were performed where appropriate using one-way analysis of variance (ANOVA) with Dunnett’s post-test. Statistical significance was taken as p < 0.05.
Glucagon concentration in perfusion samples were measured by a validated in-house RIAs using the 4305 antibody, which reacts with the C-terminal epitope of glucagon[36] and no other cleavage products of pro-glucagon. Insulin concentrations were measured with the 2006 antibody, which measures all isoforms of rat insulin. […] Assay sensitivity was <1 pmol/L ( < 5 pmol/L for insulin detection), allowing reliable measurements of increments of at least 25 fmol/min.
as §1

[5] = Solubility in aqueous solutions (observation); conditions: comparison of des-glyco nG1, pG1 and venom fraction
[6] = target: T1, human SSTR2 (Gi2) (Homo sapiens, UniProt P30874); assay: G protein activation (BRET dissociation) assay, Gi2 at hSSTR2; assay type: cell-based;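 as to Emax ± S.E.M.: percent of the maximal response to the reference somatostatin agonist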
T1 construct: host or cells: HEK293T cells
Method: as §5, §6

[7] = system: Dr-sstr2b; assay: PRESTO-Tango β-arrestin recruitment assay, Dr-sstr2b; assay type: cell-based, zebrafish (Danio rerio); conditions: for pEC50: Dr-sstr2b, Fig. S15D
Source text: as §2, §3

[8] = system: Dr-sstr2a (GoA); assay: G protein dissociation assay, GoA at Dr-sstr2a; assay type: cell-based, zebrafish (Danio rerio); conditions: HEK293T cells
Source text: as §2
(§4) Error bars represent means ± S.E.M. of n = 3 in technical duplicates.

[9] = system: Dr-sstr2b (GoA); assay: G protein dissociation assay, GoA at Dr-sstr2b; assay type: cell-based, zebrafish (Danio rerio)
Source text: as §2, §4

[10] = target: T2, human SSTR2 (GoB) (Homo sapiens, UniProt P30874); assay: G protein activation (BRET dissociation) assay, GoB at hSSTR2; assay type: cell-based;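 as to Emax ± S.E.M.: percent of the maximal response to the reference somatostatin agonist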
T2 construct: host or cells: HEK293T cells
Method: as §5, §6

[11] = target: T3, human SSTR2 (Gi1) (Homo sapiens, UniProt P30874); assay: G protein activation (BRET dissociation) assay, Gi1 at hSSTR2; assay type: cell-based;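 as to Emax ± S.E.M.: percent of the maximal response to the reference somatostatin agonist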
T3 construct: host or cells: HEK293T cells
T3 sequence (P30874 whole entry): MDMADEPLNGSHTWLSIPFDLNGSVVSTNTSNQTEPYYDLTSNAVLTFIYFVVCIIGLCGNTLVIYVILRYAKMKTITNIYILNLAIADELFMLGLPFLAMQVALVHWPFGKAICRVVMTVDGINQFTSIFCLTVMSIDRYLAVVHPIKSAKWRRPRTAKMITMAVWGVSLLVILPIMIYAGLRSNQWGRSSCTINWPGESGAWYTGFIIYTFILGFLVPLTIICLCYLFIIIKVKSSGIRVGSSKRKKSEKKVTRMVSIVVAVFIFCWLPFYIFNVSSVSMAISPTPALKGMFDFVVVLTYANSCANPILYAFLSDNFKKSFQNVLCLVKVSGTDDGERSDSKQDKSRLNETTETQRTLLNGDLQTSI
Method: as §5, §6

T1 sequence (P30874 whole entry): as above
T2 sequence (P30874 whole entry): as above

With `CC(C)C[C@H](N)C(=O)N[C@@H](Cc1ccccc1)C(=O)N[C@H]1CSSC[C@@H](C(=O)N[C@@H](Cc2c[nH]c3ccccc23)C(=O)O)NC(=O)[C@H](CO)NC(=O)[C@H](CCCCN)NC(=O)[C@@H](Cc2c[nH]c3ccccc23)NC(=O)[C@H](Cc2ccccc2)NC1=O` [pG1] (H-LFCF[dW]KSCW-OH; disulfide 3-8) the “decrease of glucagon secretion” value ([1]; 1 nM peptide, 1 mM glucose, 1 hour, p < 0.01, n = 9) was ~ 33%, the “effect on glucagon secretion in high glucose” value ([1]; 1 nM peptide, 10 mM glucose) was “Neither SS-14 nor Consomatin pG1 affected glucagon secretion in high glucose conditions” and the Islet glucagon secretion ([1]; 1mM glucose, replicate 1) was 0.1528. For the same compound, the Islet glucagon secretion ([1]; 1mM glucose, replicate 2) was 0.1799, the Islet glucagon secretion ([1]; 1mM glucose, replicate 3) was 0.229 and the Islet glucagon secretion ([1]; 1mM glucose, replicate 4) was 0.1754. It also gave an Islet glucagon secretion ([1]; 1mM glucose, replicate 5) of 0.2817, an Islet glucagon secretion ([1]; 1mM glucose, replicate 6) of 0.2671 and an Islet glucagon secretion ([1]; 1mM glucose, replicate 7) of 0.309. For the same compound, the Islet glucagon secretion ([1]; 1mM glucose, replicate 8) was 0.2377, the Islet glucagon secretion ([1]; 1mM glucose, replicate 9) was 0.1574 and the Islet glucagon secretion ([1]; 10mM glucose, replicate 1) was 0.1057. The Islet glucagon secretion ([1]; 10mM glucose, replicate 2) was 0.1136, the Islet glucagon secretion ([1]; 10mM glucose, replicate 3) was 0.1366 and the Islet glucagon secretion ([1]; 10mM glucose, replicate 4) was 0.1392. The Islet glucagon secretion ([1]; 10mM glucose, replicate 5) was 0.1398, the Islet glucagon secretion ([1]; 10mM glucose, replicate 6) was 0.1241 and the Islet glucagon secretion ([1]; 10mM glucose, replicate 7) was 0.1488. For the same compound, the Islet glucagon secretion ([1]; 10mM glucose, replicate 8) was 0.2037, the Islet glucagon secretion ([1]; 10mM glucose, replicate 9) was 0.1689 and the “Gi/o protein dissociation in words” value [2] was “weaker potencies at dissociating all Gi/o proteins compared to SS-14”. The “Gi/o protein dissociation in words” value ([2]; listed as Consomatin pG1) was “weaker potencies in dissociating different Gαi/o protein compared to SS-14 and octreotide”, the “activation of Dr-sstr2a in words” value [3] was “very low potency; also recorded: activates the zebrafish Dr-sstr2b (n = 3) but not Dr-sstr2a” and the “suppression of glucagon secretion” value ([4]; 0.1 nM, within 5 minute of application, […] glucose, n = 10 rats) was 24%. For the same compound, the “further suppression of glucagon secretion” value ([4]; 1 nM, subsequent application, […] glucose, n = 10 rats) was 45%, the “glucagon level in words” value ([4]; 10 nM, […] glucose) was “drastically reduced the glucagon level close to null” and the “recovery of glucagon level after washout” value ([4]; after 0.1 nM, 15-minute washout, baseline 754.9 fmol/min) was “failed to return to the average baseline level”. For the same compound, the “solubility in aqueous solutions in words” value [5] was “did not observe any obvious differences in the solubility”, the Emax [6] was 91 ± 4.6% and the “Hill Slope” value ([6]; Table S2, Gαi2) was 1.11 ± 0.22. The “Span ± S.E.M.” value ([6]; Table S2, Gαi2) was 83.42 ± 5.67, the EC50 ([6]; Table S2, Gαi2, HEK293T, means ± S.E.M.) was 1.35 nM and the pEC50 ([7]; replicate 1) was 7.529. The pEC50 ([7]; replicate 2) was 7.491, the pEC50 ([7]; replicate 3) was 7.611 and the pEC50 ([7]; replicate 4) was 7.82. For the same compound, the “activation of Dr-sstr2b in words” value ([7]; PRESTO-Tango, HTLA cells) was “activates the zebrafish Dr-sstr2b (n = 3) but not Dr-sstr2a”, the “Hill Slope” value ([7]; Table S4) was 0.90 ± 0.13 and the “Span ± S.E.M.” value ([7]; Table S4) was 82.46 ± 4.04. The EC50 ([7]; Table S4, HTLA cells) was 25.3 nM, the “Emax ± S.E.M.” value ([7]; Table S4, relative to SS-14) was 83.12 ± 3.13 and the “GoA dissociation at Dr-sstr2a in words” value [8] was “only induced GoA dissociation at the Dr-sstr2b but not the Dr-sstr2a”. The “GoA dissociation at Dr-sstr2b in words” value ([9]; HEK293T cells) was “only induced GoA dissociation at the Dr-sstr2b but not the Dr-sstr2a”, the “Hill Slope” value ([9]; Table S5, GoA) was 0.48 ± 0.10 and the “Span ± S.E.M.” value ([9]; Table S5, GoA) was 100.43 ± 11.98. For the same compound, the “Emax ± S.E.M.” value ([9]; Table S5, GoA, % of maximal response relative to SS-14) was 105.52 ± 10.37%, the “pEC50 ± S.E.M.” value ([9]; Table S5, GoA, HEK293T) was 7.95 ± 0.19 and the Emax [10] was 76.7 ± 3.62%. For the same compound, the “Hill Slope” value ([10]; Table S2, GαoB) was 1.46 ± 0.41, the “Span ± S.E.M.” value ([10]; Table S2, GαoB) was 76.77 ± 4.97 and the EC50 ([10]; Table S2, GαoB, HEK293T, means ± S.E.M.) was 8.32 nM. For the same compound, the Emax [11] was 95.6 ± 8.52%, the “Hill Slope” value ([11]; Table S2, Gαi1) was 0.81 ± 0.28 and the “Span ± S.E.M.” value ([11]; Table S2, Gαi1) was 87.89 ± 11.1. The EC50 ([11]; Table S2, Gαi1, HEK293T, means ± S.E.M.) was 6.46 nM.
